The test system of experiment [1] is B16. Nature of the experiment: Tested for cytotoxicity in murine melanoma (B16). Particulars: Mus musculus; call rule not given here. Format: functional, cell-based.
Experiment [2] has as its system M109. Nature of the experiment: Tested for cytotoxicity in murine lung carcinoma (M109). Format: functional, cell-based. Particulars: Mus musculus.
The subject of experiment [3] is HepG2. Briefly: Tested for cytotoxicity in human hepatoma cell (2.2.15). Format: functional, cell-based.
Experiment [4] deals with Colon 26. Briefly: Tested for cytotoxicity in murine colon cancer (C26). Type of experiment: functional, cell-based. Particulars: Mus musculus.
A further experiment has as its system CCRF-CEM. Nature of the experiment: Tested for cytotoxicity in human T-cell lymphoblastic leukemia cell line (CEM). Format: functional, cell-based.
Experiment [5] has as its system Colon 26. Nature of the experiment: Tested for cytotoxicity in murine colon cancer (C26); not cytotoxic at the highest concentration tested (70 uM). Format: functional, cell-based, Mus musculus.
Experiment [6] deals with HepG2. Briefly: Tested for the ability to inhibit extracellular HBV DNA synthesis at a concentration of 10 nM. Format: functional. Particulars: Homo sapiens.
Experiment [7] has as its system HepG2. Nature of the experiment: Tested for effective concentration against HBV treated with drug every 3 days for 9 days using human hepatoblastoma cell line HepG2 2.2.15. Format: functional, cell-based.
Experiment [8] has as its system M109. Nature of the experiment: Tested for cytotoxicity in murine lung carcinoma (M109); not cytotoxic at the highest concentration tested (70 uM). Format: functional, cell-based, Mus musculus.
Experiment [9] deals with HepG2. Nature of the experiment: Tested for the ability to inhibit HBV replication at a concentration of 19 nM using human hepatoblastoma cell line HepG2 2.2.15. Format: functional.
For experiment [10], the system named is B16. Nature of the experiment: Tested for cytotoxicity in murine melanoma (B16); not cytotoxic at the highest concentration tested (70 uM). Type of experiment: functional, cell-based, Mus musculus.
The test system of experiment [11] is HepG2. Nature of the experiment: Tested for cytotoxicity in human hepatoma cell (2.2.15); not cytotoxic at the highest concentration tested (70 uM). Format: functional, cell-based.
The test system of experiment [12] is HepG2. Nature of the experiment: Tested for the ability to inhibit HBV DNA synthesis at a concentration of 4 nM using human hepatoblastoma cell line HepG2 2.2.15. Type of experiment: functional.
The test system of experiment [13] is HepG2. Nature of the experiment: Tested for the ability to inhibit HBV DNA synthesis at a concentration of 7 nM using human hepatoblastoma cell line HepG2 2.2.15. Format: functional.
In experiment [14] the test system is HepG2. Nature of the experiment: Tested for the ability to inhibit HBV replication at a concentration of 40 nM using human hepatoblastoma cell line HepG2 2.2.15. Format: functional.

Each structure is given as a SMILES string.

A word on the IC50: it is the concentration needed to halve the response being measured. Take `CC(=O)SCCOP(=O)(OCCS)OC[C@H]1C=C[C@@H](n2cc(F)c(N)nc2=O)O1` (some centres not stated): the IC50 with B16 [1] is greater than 70 µM; in the experiment on M109 [2], greater than 70 µM; with HepG2 [3], greater than 70 µM; with Colon 26 [4], greater than 70 µM; in the experiment on CCRF-CEM, 52 µM.

Turning to `CC(=O)SCCOP(=O)(OCCSC(C)=O)OC[C@H]1CC[C@@H](n2cnc3c(N)ncnc32)O1`, the IC50 in the experiment with B16 [1] was greater than 70 µM; with M109 [2] it was greater than 70 µM; in the experiment with HepG2 [3], greater than 70 µM; in the experiment with Colon 26 [4] it was greater than 70 µM; in the experiment with CCRF-CEM, 13 µM.

In general, inhibition refers to the share of the control response that was lost under treatment. Low readings indicate a response near the control, high ones a response far below the control. What is called EC50 is the concentration that produces a half-maximal response. `CC(=O)SCCOP(=O)(OCCSC(C)=O)OC[C@H]1C=C[C@@H](n2cc(F)c(N)nc2=O)O1`: the IC50 result in the experiment with Colon 26 [5] is “Not Active”; in the experiment on CCRF-CEM, 52 µM; in the experiment on M109 [8], “Not Active”; in the experiment on B16 [10] it was “Not Active”; in the experiment on HepG2 [11] it was “Not Active”. At 0.01 µM the inhibition in the experiment with HepG2 [6] was 85%. For the same molecule, in the experiment on HepG2 [7], the EC50 came out at 0.002 µM. Moreover, in the experiment on HepG2 [9], the inhibition at 0.019 µM came to 90%. Also, in the experiment with HepG2 [12], the inhibition at 0.004 µM came to 50%.

`Nc1nc(=O)n([C@@H]2C=C[C@H](CO)O2)cc1F` [ELVUCITABINE]: testing at 0.007 µM in the experiment on HepG2 [13] gave an inhibition of 50%. Moreover, the inhibition at 0.04 µM with HepG2 [14] turned out to be 70%. The IC50 entry in the experiment with Colon 26 [5] was “Not Active”; in the experiment with CCRF-CEM, 13 µM; in the experiment on M109 [8], “Not Active”; in the experiment with B16 [10], “Not Active”; in the experiment on HepG2 [11], “Not Active”. The same molecule displayed an EC50 with HepG2 [7] of 0.017 µM.

Values taken from ChEMBL document CHEMBL1131360, “Bis-S-acyl-2-thioethyl (SATE)-bearing monophosphate prodrug of beta-L-FD4C as potent anti-HBV agent” (Bioorg Med Chem Lett, 1998).
